Test results taken from patent US11766044B2, “Method for controlling PPO resistant weeds” (BASF SE, priority 2016, dated 2023).

Test system: sensitive (w.7) and resistant weeds (w.8, w.9)
Type: in vivo, Amaranthus tuberculatus
Settings: table 3, 1 and 2 g/ha

## CCOC(=O)COc1ncccc1Oc1cc(-n2c(=O)cc(C(F)(F)F)n(C)c2=O)c(F)cc1Cl [compound (I).1]
  activity on both sensitive and resistant weeds: very good activity
